In brackets after ≈: the same amount, converted by molar mass. Where a name gives a salt, the structure may show the parent alone.
System: KB cells
Experiment: In vitro KB cell cytotoxicity assay (crystal violet)
Type: cell-based
Conditions: Homo sapiens, 72 h, 3 days culture, read-out: KB Cell Cytotoxicity TD50
Experimental: In Vitro KB Cell Cytotoxicity Assay In vitro KB cell cytoxocity assay was done by modification of the crystal violet assay ([…] et al., Anal Biochem., 159, 109-113 (1986). KB cells were cultivated in Eagles minimum essential medium supplemented with 10% calf serum and incubated at 37° C. in a humidified 5% CO2 atmosphere to prepare a cell stock. Cells were counted using a neubauer hemocytometer and seeded in 96 well plates at 100 μl of 3×10^4 cells/ml and cultured for one day. […] Control wells were identical except that test compound was absent. These were cultured for three days. Then the cells were fixed with addition of 20 μl of 25% glutaraldehyde for 15 minutes, washed with water and dried. Then stained with 100 μl of 0.05% crystal violet for 15 minutes, washed with water and dried. The wells are eluted with […] of 0.05M NaH2 PO4 /ethanol (1:1 v/v) and read at OD540 on a multiscan spectrophotometer. Inhibition value of cell growth was calculated based on optical density using the following equation; [formula] TD50 values were calculated from linear regression ines of the log-logit plot.

| SMILES | IC50 [µg/mL] |
| --- | --- |
| CC(=O)N[C@@H](C(=O)OC[C@H]1CN2C(=O)C[C@@H]2O1)C(C)C (mixture of isomers) [Example 61, (3RS,5SR)-3-(D-2-Acetylamino-3-methylbutyryl)oxymethyl-4-oxa-1-azabicyclo[3.2.0]heptan-7-one] | 0.385 |
| CC(C)C(=O)NC[C@@H]1CN2C(=O)C[C@H]2O1 (racemic) [Example 5, (3RS,5RS)-3-[N-(2-Methylpropanoyl)aminomethyl]-4-oxa-1-azabicyclo[3.2.0]heptan-7-one] | 0.181 (≈ 0.853 µM) |
| [N-]=[N+]=NCC(=O)NC[C@@H]1CN2C(=O)C[C@H]2O1 (racemic) [Example 9, (3RS,5RS)-3-[N-(Azidoacetyl)aminomethyl]-4-oxa-1-azabicyclo[3.2.0]heptan-7-one] | 0.296 (≈ 1.31 µM) |
| O=C(Cn1ccnn1)NC[C@@H]1CN2C(=O)C[C@H]2O1 (racemic) [Example 10, (3RS,5RS)-3-[N-(1,2,3-Triazole-1-yl)acetylaminomethyl]-4-oxa-1-azabicyclo[3.2.0]heptan-7-one] | 0.282 (≈ 1.12 µM) |
| O=COCC(=O)NC[C@@H]1CN2C(=O)C[C@H]2O1 (racemic) [Example 11, (3RS,5RS)-3-[N-(Formyloxyacetyl)aminomethyl]-4-oxa-1-azabicyclo[3.2.0]heptan-7-one] | 0.147 (≈ 0.644 µM) |
| O=C(CO)NC[C@@H]1CN2C(=O)C[C@H]2O1 (racemic) [Example 12, (3RS,5RS)-3-[N-(Hydroxyacetyl)aminomethyl]-4-oxa-1-azabicyclo[3.2.0]heptan-7-one] | 0.125 (≈ 0.624 µM) |
| O=C(CCCCCBr)NC[C@@H]1CN2C(=O)C[C@H]2O1 (racemic) [Example 13, (3RS,5RS)-3-[N-(6-Bromohexanoyl)aminomethyl]-4-oxa-1-azabicyclo[3.2.0]heptan-7-one] | 0.491 (≈ 1.54 µM) |
| O=COCCCCCC(=O)NC[C@@H]1CN2C(=O)C[C@H]2O1 (racemic) [Example 14, (3RS,5RS)-3-[N-(6-Formyloxyhexanoyl)aminomethyl]-4-oxa-1-azabicyclo[3.2.0]heptan-7-one] | 0.243 (≈ 0.855 µM) |
| [N-]=[N+]=NCCCCCC(=O)NC[C@@H]1CN2C(=O)C[C@H]2O1 (racemic) [Example 15, (3RS,5RS)-3-[N-(6-Azidohexanoyl)aminomethyl]-4-oxa-1-azabicyclo[3.2.0]heptan-7-one] | 0.254 (≈ 0.903 µM) |
| O=C(CCCCCn1ccnn1)NC[C@@H]1CN2C(=O)C[C@H]2O1 (racemic) [Example 16, (3RS,5RS)-3-[N-[(1,2,3-Triazol-1-yl)hexanoyl]aminomethyl]-4-oxa-1-azabicyclo[3.2.0]heptan-7-one] | 0.318 (≈ 1.03 µM) |
| CC(=O)NCCCCCC(=O)NC[C@@H]1CN2C(=O)C[C@H]2O1 (racemic) [Example 17, (3RS,5RS)-3-[N-(6-Acetylaminohexanoyl)aminomethyl]-4-oxa-1-azabicyclo[3.2.0]heptan-7-one] | 0.439 (≈ 1.48 µM) |
| C=CCCC(=O)NC[C@@H]1CN2C(=O)C[C@H]2O1 (racemic) [Example 19, (3RS,5RS)-3-[N-(4-Pentenoyl)aminomethyl]-4-oxa-1-azabicyclo[3.2.0]heptan-7-one] | 0.266 (≈ 1.19 µM) |
| C#CC(=O)NC[C@@H]1CN2C(=O)C[C@H]2O1 (racemic) [Example 20, (3RS,5RS)-3-[N-Propynoylaminomethyl]-4-oxa-1-azabicyclo[3.2.0]heptan-7-one] | 0.333 (≈ 1.71 µM) |
| O=C(NC[C@@H]1CN2C(=O)C[C@H]2O1)OCc1ccccc1 (racemic) [Example 21, (3RS,5RS)-3-[N-(Benzyloxycarbonyl)aminomethyl]-4-oxa-1-azabicyclo[3.2.0]heptan-7-one] | 0.34 (≈ 1.23 µM) |
| O=C(NC[C@@H]1CN2C(=O)C[C@H]2O1)c1ccc(O)cc1 (racemic) [Example 24, (3RS,5RS)-3-[N-(4-Hydroxybenzoyl)aminomethyl]-4-oxa-1-azabicyclo[3.2.0]heptan-7-one] | 0.276 (≈ 1.05 µM) |
| COc1ccc(C(=O)NC[C@@H]2CN3C(=O)C[C@H]3O2)cc1 (racemic) [Example 25, (3RS,5RS)-3-[N-(4-Methoxybenzoyl)aminomethyl]-4-oxa-1-azabicyclo[3.2.0]heptan-7-one] | 0.255 (≈ 0.923 µM) |
| COc1ccc(C(=O)NC[C@@H]2CN3C(=O)C[C@H]3O2)cc1OC (racemic) [Example 26, (3RS,5RS)-3-[N-(3,4-Dimethoxybenzoyl)aminomethyl]-4-oxa-1-azabicyclo[3.2.0]heptan-7-one] | 0.249 (≈ 0.813 µM) |

| SMILES | IC50 [µg/mL] |
| --- | --- |
| O=C(NC[C@@H]1CN2C(=O)C[C@H]2O1)c1ccc(F)cc1 (racemic) [Example 27, (3RS,5RS)-3-[N-(4-Fluorobenzoyl)aminomethyl]-4-oxa-1-azabicyclo[3.2.0]heptan-7-one] | 0.24 (≈ 0.908 µM) |
| O=C(NC[C@@H]1CN2C(=O)C[C@H]2O1)c1cc(F)ccc1F (racemic) [Example 28, (3RS,5RS)-3-[N-(2,5-Difluorobenzoyl)aminomethyl]-4-oxa-1-azabicyclo[3.2.0]heptan-7-one] | 0.379 (≈ 1.34 µM) |
| O=C(NC[C@@H]1CN2C(=O)C[C@H]2O1)c1cc(F)c(F)cc1F (racemic) [Example 29, (3RS,5RS)-3-[N-(2,4,5-Trifluorobenzoyl)aminomethyl]-4-oxa-1-azabicyclo[3.2.0]heptan-7-one] | 0.535 (≈ 1.78 µM) |
| N#Cc1ccc(C(=O)NC[C@@H]2CN3C(=O)C[C@H]3O2)cc1 (racemic) [Example 30, (3RS,5RS)-3-[N-(4-Cyanobenzoyl)aminomethyl]-4-oxa-1-azabicyclo[3.2.0]heptan-7-one] | 0.378 (≈ 1.39 µM) |
| O=C(NC[C@@H]1CN2C(=O)C[C@H]2O1)c1cccnc1 (racemic) [Example 32, (3RS,5RS)-3-[N-[(Pyridin-3-yl)carbonyl]aminomethyl]-4-oxa-1-azabicyclo[3.2.0]heptan-7-one] | 0.78 (≈ 3.15 µM) |
| Cc1ccc(S(=O)(=O)NC[C@H]2CN3C(=O)C[C@H]3O2)cc1 (racemic) [Example 36, (3RS,5RS)-3-[N-(4-Toluenesulfonyl)aminomethyl]-4-oxa-1-azabicyclo[3.2.0]heptan-7-one] | 0.338 (≈ 1.14 µM) |
| O=C1C[C@H]2O[C@@H](CNS(=O)(=O)c3ccc(Cl)cc3)CN12 (racemic) [Example 37, (3RS,5RS)-3-[N-(4-Chlorobenzenesulfonyl)aminomethyl]-4-oxa-1-azabicyclo[3.2.0]heptan-7-one] | 0.484 (≈ 1.53 µM) |
| O=C(O)CCC(=O)NC[C@H]1CN2C(=O)C[C@@H]2O1 (relative stereo) [Example 18, Sodium{N-[(3RS,5RS)-7-oxo-1-aza-4-oxabicyclo[3.2.0]hept-3-yl]methylamino}succinate] | 2.85 |
| CC(=O)NC[C@@H]1CN2C(=O)C[C@H]2O1 [Example 3, (3R,5R)-3-(N-Acetylaminomethyl)-4-oxa-1-azabicyclo[3.2.0]heptan-7-one] | 3.15 (≈ 17.1 µM) |
| C[C@H](N)C(=O)NCC1CN2C(=O)CC2O1 (stereo partly drawn) [Example 50B, (3RS,5RS)-3-N-(L-2-Aminopropanoyl)aminomethyl-4-oxa-1-azabicyclo[3.2.0]heptan-7-one hydrochloride] | 0.657 |
| N[C@@H](CC(=O)O)C(=O)N[C@@H](Cc1ccccc1)C(=O)NCC1CN2C(=O)CC2O1 (stereo partly drawn) [Example 64B, (3RS,5RS)-3-N-[L-2-N-(L-2-Amino-3-carboxypropanoyl)amino-3-phenylpropanoyl]aminomethyl-4-oxa-1-azabicyclo[3.2.0]heptan-7-one] | 2.65 (≈ 6.55 µM) |
| O=C(N[C@@H](CO)C(=O)OCC1CN2C(=O)CC2O1)OCc1ccccc1 (stereo partly drawn) [Example 70, (3RS,5SR)-3-(L-2-N-Benzyloxycarbonylamino-3-hydroxypropanyl)oxymethyl-4-oxa-1-azabicyclo[3.2.0]heptan-7-one] | 0.352 (≈ 0.966 µM) |
| C[C@@H](NC(=O)OCc1ccccc1)C(=O)N[C@@H](CO)C(=O)OCC1CN2C(=O)CC2O1 (stereo partly drawn) [Example 71, (3RS,5SR)-3-[L-2-N-(D-2-N-Benzyloxycarbonylaminopropanoyl)amino-3-hydroxypropanoyl]oxymethyl-4-oxa-1-azabicyclo[3.2.0]heptan-7-one] | 0.549 (≈ 1.26 µM) |
| O=C(N[C@@H](COCc1ccccc1)C(=O)OCC1CN2C(=O)CC2O1)OCc1ccccc1 (stereo partly drawn) [Example 72, (3RS,5SR)-3-L-(2-N-Benzyloxycarbonylamino-3-benzyloxypropanoyl)oxymethyl-4-oxa-1-azabicyclo[3.2.0]heptan-7-one] | 1.67 (≈ 3.67 µM) |
| C[C@@H](NC(=O)OCc1ccccc1)C(=O)N[C@@H](COCc1ccccc1)C(=O)OCC1CN2C(=O)CC2O1 (stereo partly drawn) [Example 73, (3RS,5R)-3-[L-2-N-(D-2-N-Benzyloxycarbonylaminopropanoyl)amino-3-benzyloxypropanoyl]oxymethyl-4-oxa-1-azabicyclo[3.2.0]heptan-7-one] | 2.22 (≈ 4.22 µM) |
| N[C@@H](CO)C(=O)NCC1CN2C(=O)CC2O1 (stereo partly drawn) [Example 76B, (3RS,5RS)-3-[N-(L-2-Amino-3-hydroxypropanoyl)aminomethyl]-4-oxa-1-azabicyclo[3.2.0]heptan-7-one hydrochloride] | 8.81 |
| CC(=O)N[C@@H](CCCCNC(=O)OCc1ccccc1)C(=O)OCC1CN2C(=O)CC2O1 (stereo partly shown) [Example 78] | 3.38 (≈ 7.55 µM) |

Source: patent US5994342A, “3-(substituted methyl)-4-oxa-1-azabicyclo[3.2.0]heptan-7-one derivatives useful as antitumor agents” (priority 1994, dated 1999)
